What was measured:
[1] = cited from earlier work
[2] = Drug loading amount by thermogravimetric analysis (TGA); assay type: physicochemical; settings: for Loading percent in LMC-2: drug loaded in LMC-2, TGA; for Loading percent in PMC: drug loaded in PMC, TGA
Experimental: (§1) The loaded mesoporous carbons were dried, the external surface cleaned, and then placed into 130 cm^3 of simulated gastric fluid without pepsin (SGF; 0.2% w/v NaCl, aqueous HCl, pH adjusted to ˜1.5) or into simulated intestinal fluid (SIF) at ambient temperature for 30-50 hours under mild stirring (˜60 rpm) for in-vitro drug release. The drug concentrations were measured by UV-Vis spectroscopy utilizing a calibration curve on absorbance at various concentrations of the drug in SGF or SIF medium.
The drug loading amount in PMC and LMC-2 were measured with the help of thermogravimetric analysis (TGA). Pure mesoporous carbons, pure drugs, and drug-loaded carbons were heated under an inert atmosphere (N2) up to 1000° C., wherein the drug loading amount was calculated by comparing the relative amount of residues.

[3] = N2 adsorption-desorption on drug-loaded mesoporous carbons (pore filling); assay type: physicochemical
Experimental: In order to further investigate the occupancy of pore space by drug molecules, N2 adsorption-desorption experiments were performed on the drug-loaded mesoporous carbons, and the pore size distribution was calculated by the NLDFT method.

[4] = In-vitro drug release from loaded mesoporous carbon in SGF or SIF (UV-Vis), with kinetic and diffusivity analysis; assay type: physicochemical
Experimental: as §1
In order to further investigate the diffusivity of the loaded drugs in the releasing media, Fick's laws of diffusion in spherical and cylindrical coordinates were utilized. Based on the assumption that drug-loaded mesoporous carbons are monolithic systems, the release profile in the spherical system can be mathematically expressed as (J. Siepmann, F. Siepmann, J., Controlled Release, 161 (2012) 351-362.):
versus t will yield the diffusivity values for both types of systems. […] As the centers of micelles are believed to give rise to the mesopores, and because the micelles are approximately spherical in shape, a distorted spherical to cylindrical entity could serve as the closest approximation of the pore geometry. Based on these assumptions, diffusivity values have been calculated from all the release patterns for both spherical and cylindrical systems.
versus t which also yields the diffusivity values of antipyrine from LMC-2 and PMC at three temperatures of 25° C., 35.5° C., and 50° C. Because of the surfactant templating, it was assumed that the mesopore geometries have a spherical to cylindrical shape, which became a basis for calculating the diffusivity values from each of the patterns in both cylindrical and spherical systems.
In order to provide further insight on the temperature dependence of diffusivity, calculations were made using the Eyring equation by assuming antipyrine diffusion from the pores of the carbons is an activation process,
where Eα is the activation energy.

[5] = from LMC-1, SGF, within around 60% of total drug release

## Cc1cc(=O)n(-c2ccccc2)n1C [Antipyrine]
[1]; from porous silica
  completion of release: 300 min
[2]
  Loading percent in LMC-2: 12%
  Loading percent in PMC: 22%

## NS(=O)(=O)c1cc(C(=O)O)c(NCc2ccco2)cc1Cl [Furosemide]
[3]; both types of carbons (PMC, LMC-2)
  pore filling by drug: minimum pore filling
[1]; from mesoporous silica nanoparticles, pH range 5.5 to 7.4
  release completed: less than 100 minutes
[4]; LMC/SGF
  Diffusivity, Cylindrical: 6 × 10^−22 m^2/s
  Diffusivity, Spherical: 4 × 10^−22 m^2/s
[4]; PMC/SGF
  Diffusivity, Cylindrical: 7 × 10^−23 m^2/s
  Diffusivity, Spherical: 4 × 10^−23 m^2/s
[4]; PMC/SIF
  Diffusivity, Cylindrical: 2 × 10^−23 m^2/s
  Diffusivity, Spherical: 1 × 10^−23 m^2/s
[4]; SGF
  initial burst, drug released within 1.5 hours: 60%
[4]; from LMC, SGF
  time to complete release: less than 10 hours
[4]; from PMC, SGF
  time to complete release: 30 to 40 h
[4]; from PMC, SIF (pH ~6.8)
  time to complete release: 30 to 40 h
[4]; release from LMC
  order of magnitude of diffusivity: 10^−22 m^2/s
[4]; release from PMC in both SGF and SIF
  order of magnitude of diffusivity: 10^−23 m^2/s
[2]
  Loading percent in LMC-2: 6.6%
  Loading percent in PMC: 6.7%

## C[C@H](CS)C(=O)N1CCC[C@H]1C(=O)O [Captopril]
[3]; PMC
  pore filling by drug: highest pore filling
[4]; LMC/SGF
  Diffusivity, Cylindrical: 2 × 10^−22 m^2/s
  Diffusivity, Spherical: 9 × 10^−23 m^2/s
[4]; PMC/SGF
  Diffusivity, Cylindrical: 2 × 10^−23 m^2/s
  Diffusivity, Spherical: 7 × 10^−24 m^2/s
[4]; from LMC, SGF
  time to complete release: < 20 h
[4]; [5]
  order of release (Korsmeyer-Peppas equation): 0.42
  release rate constant (Korsmeyer-Peppas equation): 3.9
[4]; from PMC, SGF
  time to complete release: ~40 h
[2]
  Loading percent in LMC-2: 5%
  Loading percent in PMC: 13%
